Article PMC6481325, “Novel N,N-dialkyl cyanocinnamic acids as monocarboxylate transporter 1 and 4 inhibitors” (Oncotarget, 2019)

Legend:
WiDr cells = experiment: SRB cell proliferation inhibition assay, WiDr; type: cell-based; conditions: Homo sapiens, 72 hours, average ± sem
Method: (§1) MDA-MB-231 cells (ATCC, 2015) were grown in DMEM supplemented with 10% FBS and penicillin-streptomycin (50 U/ml, 50 μg/ml, Invitrogen). WiDr cells (ATCC, 2017) were cultured in MEM medium supplemented with 10% FBS (Atlanta Biologicals) and penicillin-streptomycin (50 U/ml, 50 μg/ml). For in vitro experiments, after seeding, cells were incubated at 37°C in 5% CO2 for 18–24 hours before the addition of test compounds.
(§2) Cells (5 × 10^4 cells/mL) were cultured in 48-well plates. Test compounds were dissolved in DMSO (final concentration of DMSO is <0.1%) and were added to culture wells at various concentrations in replicate and incubated for 72 hours. Growth medium was removed and the wells were washed with PBS and dried. SRB (0.5% in 1% acetic acid) was added to the wells and incubated for 30–45 minutes. The wells were washed 3 times with 1% acetic acid and dried. The cellular protein was dissolved in trizma base (10 mM, pH 10.2) and absorbance was recorded at 540 nm. Percent survival was calculated using the formula %Survival=Abstest compound/Abscontrol×100 .

MDA-MB-231 cells = experiment: SRB cell proliferation inhibition assay, MDA-MB-231; type: cell-based; conditions: 72 hours, average ± sem
Method: as §1, §2

[1] = parameters: method as in ref 32 = [32]; PMID 26005533; doi:10.1021/acsmedchemlett.5b00049; 32 Gurrapu S Jonnalagadda SK Alam MA Nelson GL Sneve MG Drewes LR Mereddy VR Monocarboxylate transporter 1 inhibitors as potential anticancer agents ACS Med Chem Lett 2015 6 558 61 10.1021/acsmedcheml; conditions: in vivo; cited from earlier work
[2] = system: MCT1 expressing WiDr cells; experiment: Seahorse XFe96 mitochondrial stress test (OCR), WiDr; type: cell-based; conditions: 30 μM
Method: Extracellular acidification rates (ECAR) and oxygen consumption rates (OCR) were recorded in real-time for glycolysis stress test (GST) and mitochondrial stress test (MST), respectively, using Agilent Seahorse XFe96® analyzer.

COc1cc(N(c2ccccc2)c2ccccc2)ccc1/C=C(\C#N)C(=O)O [Phenyl (9)]
IC50 (WiDr cells): 4.2 ± 0.4 µM | SRB IC50 (MDA-MB-231 cells): did not show any activity | IC50 (MDA-MB-231 cells; Homo sapiens): > 25 µM | elimination from plasma [1]: most of the compound was eliminated in less than one hour | time of peak plasma concentration [1]: 15 min | ATP production (MST, OCR) [2]: significantly decreased | maximal respiration (MST, OCR) [2]: significantly decreased | proton leak (MST, OCR) [2]: significantly increased proton leak compared to compound 3 | spare respiratory capacity (MST, OCR) [2]: significantly decreased
